Results from PubChem BioAssay (NCI).
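Five compound concentrations were applied to cells in 96-well plates for 48 hours; endpoints were derived by simple linear interpolation of the resulting dose-response curve. Here, GI50 denotes the concentration required for 50% inhibition of growth. TGI denotes the concentration required for complete inhibition of growth.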

Legend:
Test in all cases: DTP human tumour cell line panel, 48 h
HCT-116 colon = test system: HCT-116 colon
EKVX NSCLC = test system: EKVX NSCLC
SNB-75 CNS = test system: SNB-75 CNS
ACHN renal = test system: ACHN renal
SW-620 colon = test system: SW-620 colon
UACC-257 melanoma = test system: UACC-257 melanoma
NCI-H522 lung = test system: NCI-H522 lung
HOP-92 NSCLC = test system: HOP-92 NSCLC
NCI-H226 lung = test system: NCI-H226 lung
RPMI-8226 leukemia = test system: RPMI-8226 leukemia
IGROV1 ovarian = test system: IGROV1 ovarian
HCC-2998 colon = test system: HCC-2998 colon
SK-MEL-5 melanoma = test system: SK-MEL-5 melanoma
BT-549 breast = test system: BT-549 breast
MDA-MB-435 = test system: MDA-MB-435
MDA-MB-231 breast = test system: MDA-MB-231 breast
MOLT-4 leukemia = test system: MOLT-4 leukemia
HL-60(TB) leukemia = test system: HL-60(TB) leukemia
M14 melanoma = test system: M14 melanoma
PC-3 prostate = test system: PC-3 prostate
SF-295 CNS = test system: SF-295 CNS
A498 renal = test system: A498 renal
A549 NSCLC = test system: A549 NSCLC
UACC-62 melanoma = test system: UACC-62 melanoma
K-562 leukemia = test system: K-562 leukemia
MCF7 breast = test system: MCF7 breast
DU-145 prostate = test system: DU-145 prostate
TK-10 renal = test system: TK-10 renal
NCI-H23 lung = test system: NCI-H23 lung
U251 CNS = test system: U251 CNS
OVCAR-8 ovarian = test system: OVCAR-8 ovarian
KM12 colon = test system: KM12 colon
SNB-19 CNS = test system: SNB-19 CNS
HT29 colon = test system: HT29 colon
COLO 205 colon = test system: COLO 205 colon
OVCAR-4 ovarian = test system: OVCAR-4 ovarian
RXF 393 renal = test system: RXF 393 renal
SK-OV-3 ovarian = test system: SK-OV-3 ovarian
786-0 renal = test system: 786-0 renal
LOX IMVI melanoma = test system: LOX IMVI melanoma
UO-31 renal = test system: UO-31 renal
T-47D breast = test system: T-47D breast
OVCAR-5 ovarian = test system: OVCAR-5 ovarian
OVCAR-3 ovarian = test system: OVCAR-3 ovarian
NCI-H460 lung = test system: NCI-H460 lung
HS 578T breast = test system: HS 578T breast
CCRF-CEM leukemia = test system: CCRF-CEM leukemia
SK-MEL-28 melanoma = test system: SK-MEL-28 melanoma
SF-268 CNS = test system: SF-268 CNS
CAKI-1 renal = test system: CAKI-1 renal
HOP-62 NSCLC = test system: HOP-62 NSCLC
SK-MEL-2 melanoma = test system: SK-MEL-2 melanoma
NCI/ADR-RES ovarian = test system: NCI/ADR-RES ovarian
SF-539 CNS = test system: SF-539 CNS
MALME-3M melanoma = test system: MALME-3M melanoma
SR leukemia = test system: SR leukemia
HCT-15 colon = test system: HCT-15 colon
SN12C renal = test system: SN12C renal

O=C(Nc1ccc(Oc2ccc3nc(NC(=O)c4ccco4)[nH]c3c2)cc1)Nc1cc(C(F)(F)F)ccc1F
GI50 (HCT-116 colon): 0.437 µM
TGI (HCT-116 colon): 4.57 µM
GI50 (EKVX NSCLC): 1.75 µM
TGI (EKVX NSCLC): > 25 µM
GI50 (SNB-75 CNS): 2.39 µM
TGI (SNB-75 CNS): 10.2 µM
GI50 (ACHN renal): 1.28 µM
TGI (ACHN renal): 6.08 µM
GI50 (SW-620 colon): 1.25 µM
TGI (SW-620 colon): > 17.8 µM
GI50 (UACC-257 melanoma): 2.25 µM
TGI (UACC-257 melanoma): 8.74 µM
GI50 (NCI-H522 lung): 3.03 µM
TGI (NCI-H522 lung): 9.55 µM
GI50 (HOP-92 NSCLC): 0.234 µM
TGI (HOP-92 NSCLC): 5.74 µM
GI50 (NCI-H226 lung): 0.28 µM
TGI (NCI-H226 lung): 4.02 µM
GI50 (RPMI-8226 leukemia): 2.17 µM
TGI (RPMI-8226 leukemia): 10.6 µM
GI50 (IGROV1 ovarian): 1.23 µM
TGI (IGROV1 ovarian): 10.2 µM
GI50 (HCC-2998 colon): 2.44 µM
TGI (HCC-2998 colon): > 20.1 µM
GI50 (SK-MEL-5 melanoma): 1.16 µM
TGI (SK-MEL-5 melanoma): 4.74 µM
GI50 (BT-549 breast): 2.08 µM
TGI (BT-549 breast): 6.05 µM
GI50 (MDA-MB-435): 0.973 µM
TGI (MDA-MB-435): 7.71 µM
GI50 (MDA-MB-231 breast): 1.09 µM
TGI (MDA-MB-231 breast): 5.77 µM
GI50 (MOLT-4 leukemia): 2.21 µM
TGI (MOLT-4 leukemia): 15.7 µM
GI50 (HL-60(TB) leukemia): 0.823 µM
TGI (HL-60(TB) leukemia): 7.07 µM
GI50 (M14 melanoma): 0.786 µM
TGI (M14 melanoma): 5.16 µM
GI50 (PC-3 prostate): 1.49 µM
TGI (PC-3 prostate): 8.59 µM
GI50 (SF-295 CNS): 1.76 µM
TGI (SF-295 CNS): > 12.2 µM
GI50 (A498 renal): 0.929 µM
TGI (A498 renal): 5.4 µM
GI50 (A549 NSCLC): 3.19 µM
TGI (A549 NSCLC): 11.8 µM
GI50 (UACC-62 melanoma): 0.844 µM
TGI (UACC-62 melanoma): 5.48 µM
GI50 (K-562 leukemia): 0.0122 µM
TGI (K-562 leukemia): 6.11 µM
GI50 (MCF7 breast): 2.94 µM
TGI (MCF7 breast): 15.6 µM
GI50 (DU-145 prostate): 2.92 µM
TGI (DU-145 prostate): 10.6 µM
GI50 (TK-10 renal): 2.57 µM
TGI (TK-10 renal): 12.8 µM
GI50 (NCI-H23 lung): 0.852 µM
TGI (NCI-H23 lung): 9.08 µM
GI50 (U251 CNS): 3.33 µM
TGI (U251 CNS): > 15.3 µM
GI50 (OVCAR-8 ovarian): 1.26 µM
TGI (OVCAR-8 ovarian): 6.92 µM
GI50 (KM12 colon): 0.0178 µM
TGI (KM12 colon): 4.31 µM
GI50 (SNB-19 CNS): 6.95 µM
TGI (SNB-19 CNS): > 25 µM
GI50 (HT29 colon): 1.18 µM
TGI (HT29 colon): 6.09 µM
GI50 (COLO 205 colon): 3.02 µM
TGI (COLO 205 colon): 11.4 µM
GI50 (OVCAR-4 ovarian): 1.25 µM
TGI (OVCAR-4 ovarian): > 13.8 µM
GI50 (RXF 393 renal): 1.28 µM
TGI (RXF 393 renal): 5.13 µM
GI50 (SK-OV-3 ovarian): 3.44 µM
TGI (SK-OV-3 ovarian): 12.1 µM
GI50 (786-0 renal): 3.55 µM
TGI (786-0 renal): 10.4 µM
GI50 (LOX IMVI melanoma): 0.537 µM
TGI (LOX IMVI melanoma): 6.04 µM
GI50 (UO-31 renal): 0.874 µM
TGI (UO-31 renal): 5.27 µM
GI50 (T-47D breast): 2 µM
TGI (T-47D breast): 8.19 µM
GI50 (OVCAR-5 ovarian): 1.49 µM
TGI (OVCAR-5 ovarian): 8.63 µM
GI50 (OVCAR-3 ovarian): 2.9 µM
TGI (OVCAR-3 ovarian): 7.22 µM
GI50 (NCI-H460 lung): 1.35 µM
TGI (NCI-H460 lung): 6.85 µM
GI50 (HS 578T breast): 0.446 µM
TGI (HS 578T breast): 3.42 µM
GI50 (CCRF-CEM leukemia): 1.85 µM
TGI (CCRF-CEM leukemia): > 25 µM
GI50 (SK-MEL-28 melanoma): 2.08 µM
TGI (SK-MEL-28 melanoma): 7.04 µM
GI50 (SF-268 CNS): 2.55 µM
TGI (SF-268 CNS): 14.1 µM
GI50 (CAKI-1 renal): 1.81 µM
TGI (CAKI-1 renal): > 14.4 µM
GI50 (HOP-62 NSCLC): 3.44 µM
TGI (HOP-62 NSCLC): 10.7 µM
GI50 (SK-MEL-2 melanoma): 0.668 µM
TGI (SK-MEL-2 melanoma): 4.37 µM
GI50 (NCI/ADR-RES ovarian): 1.71 µM
TGI (NCI/ADR-RES ovarian): 11.4 µM
GI50 (SF-539 CNS): 0.943 µM
TGI (SF-539 CNS): 5.69 µM
GI50 (MALME-3M melanoma): 0.699 µM
TGI (MALME-3M melanoma): 5.31 µM
GI50 (SR leukemia): 0.964 µM
TGI (SR leukemia): 7.36 µM
GI50 (HCT-15 colon): 1.33 µM
TGI (HCT-15 colon): > 17.2 µM
GI50 (SN12C renal): 0.89 µM
TGI (SN12C renal): 10.9 µM
